# Biological target: Human VPS34 (Homo sapiens (Human), UniProt Q8NEB9)
# Assay: Human VPS34 enzyme assay (Adapta TR-FRET)
# Format: biochemical
# Conditions: compound concentration 1.11 μM
# Human VPS34, sequence (Q8NEB9 whole entry): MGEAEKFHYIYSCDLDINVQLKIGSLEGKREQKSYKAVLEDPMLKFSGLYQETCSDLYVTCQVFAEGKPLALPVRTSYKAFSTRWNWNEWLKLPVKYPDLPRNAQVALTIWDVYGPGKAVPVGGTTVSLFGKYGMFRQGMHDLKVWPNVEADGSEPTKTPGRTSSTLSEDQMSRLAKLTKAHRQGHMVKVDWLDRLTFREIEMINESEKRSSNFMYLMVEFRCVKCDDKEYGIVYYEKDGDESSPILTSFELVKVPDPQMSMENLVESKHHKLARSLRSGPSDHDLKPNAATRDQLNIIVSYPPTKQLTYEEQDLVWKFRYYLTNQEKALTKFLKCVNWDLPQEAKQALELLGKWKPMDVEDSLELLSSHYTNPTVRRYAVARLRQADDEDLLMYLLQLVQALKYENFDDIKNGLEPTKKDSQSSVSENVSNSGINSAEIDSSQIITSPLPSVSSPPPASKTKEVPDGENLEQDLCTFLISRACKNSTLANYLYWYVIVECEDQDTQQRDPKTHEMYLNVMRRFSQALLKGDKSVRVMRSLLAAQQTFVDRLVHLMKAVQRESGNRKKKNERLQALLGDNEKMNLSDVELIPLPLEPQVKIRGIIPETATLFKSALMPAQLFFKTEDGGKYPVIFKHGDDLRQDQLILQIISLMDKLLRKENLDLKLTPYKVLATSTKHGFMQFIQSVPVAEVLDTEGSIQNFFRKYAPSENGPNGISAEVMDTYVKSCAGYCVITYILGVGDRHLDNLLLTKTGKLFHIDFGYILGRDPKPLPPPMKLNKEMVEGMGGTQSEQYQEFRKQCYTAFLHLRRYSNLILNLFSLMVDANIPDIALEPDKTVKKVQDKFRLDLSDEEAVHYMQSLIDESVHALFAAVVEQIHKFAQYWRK
row,Percent Inhibition [%],SMILES
1,>99,"CC(=O)Nc1cc(-c2cnc(Cl)c(S(=O)(=O)N[C@H](CO)c3ccccc3)c2)ccn1 [Compound I-330, N-(6-chloro-5-{[(1S)-2-hydroxy-1-phenylethyl]sulfamoyl}-3,4′-bipyridin-2′-yl)acetamide]"

# Same assay, conditions: compound concentration 1.11 μM; read-out: Percent Inhibition
row,SMILES,inhibition at 1.11 µM [%]
1,"CC(=O)Nc1cc(-c2cncc(S(=O)(=O)NC3C4CC5CC(C4)CC3C5)c2)ccn1 (centres unmarked) [Compound I-318, N-[5-(adamantan-2-ylsulfamoyl)-3,4′-bipyridin-2′-yl]acetamide]",97
2,"CC(=O)Nc1cc(-c2cnc(C)c(N(CCO)S(=O)(=O)c3ccc(F)cc3F)c2)ccn1 [Compound I-319, N-(5-{[(2,4-difluorophenyl)sulfonyl](2-hydroxyethyl)amino}-6-methyl-3,4′-bipyridin-2′-yl)acetamide]",94
3,"CC(=O)Nc1cc(-c2cncc(N3CCCCS3(=O)=O)c2)ccn1 [Compound I-320, N-[5-(1,1-dioxido-1,2-thiazinan-2-yl)-3,4′-bipyridin-2′-yl]acetamide]",95
4,"CC(=O)Nc1cc(-c2cncc(S(=O)(=O)NCc3ccccc3)c2)ccn1 [Compound I-321, N-[5-(benzylsulfamoyl)-3,4′-bipyridin-2′-yl]acetamide]",> 99
5,"CC(=O)Nc1cc(-c2cnc(C)c(NS(=O)(=O)c3cccc(F)c3Cl)c2)ccn1 [Compound I-322, N-(5-{[(2-chloro-3-fluorophenyl)sulfonyl]amino}-6-methyl-3,4′-bipyridin-2′-yl)acetamide]",96
6,"CC(=O)Nc1cc(-c2cnc(N)c(N3CCCN(C)S3(=O)=O)c2)ccn1 [Compound I-323, N-[6-amino-5-(6-methyl-1,1-dioxido-1,2,6-thiadiazinan-2-yl)-3,4′-bipyridin-2′-yl]acetamide]",73
7,"Cc1ncc(-c2ccnc(NC(=O)OCC3(C)COC3)c2)cc1NS(=O)(=O)c1ccc(F)cc1F [Compound I-324, (3-methyloxetan-3-yl)methyl (5-{[(2,4-difluorophenyl)sulfonyl]amino}-6-methyl-3,4′-bipyridin-2′-yl)carbamate]",> 99
8,"CNC1CN(c2cc(-c3ccnc(NC(C)=O)c3)cnc2C)S(=O)(=O)C1 (centres unmarked) [Compound I-325, N-{6-methyl-5-[4-(methylamino)-1,1-dioxidoisothiazolidin-2-yl]-3,4′-bipyridin-2′-yl}acetamide]",> 99
9,"Cc1ncc(-c2ccnc(NC(=O)OCc3ccn(C)n3)c2)cc1NS(=O)(=O)c1ccc(F)cc1F [Compound I-326, (1-methyl-1H-pyrazol-3-yl)methyl (5-{[(2,4-difluorophenyl)sulfonyl]amino}-6-methyl-3,4′-bipyridin-2′-yl)carbamate]",96
10,"COc1ncc(-c2ccnc(NC(C)=O)c2)cc1S(=O)(=O)Nc1cccc(C(F)(F)F)c1 [Compound I-329, N-(6-methoxy-5-{[3-(trifluoromethyl)phenyl]sulfamoyl}-3,4′-bipyridin-2′-yl)acetamide]",> 99
11,"COc1ncc(-c2ccnc(NC(C)=O)c2)cc1N(C)C(=O)c1ccc(F)cc1F [Compound I-331, N-(2′-acetamido-6-methoxy-3,4′-bipyridin-5-yl)-2,4-difluoro-N-methylbenzamide]",93
12,"COC(=O)Nc1cc(-c2cncc(S(=O)(=O)N3CCOCC3)c2)ccn1 [Compound I-332, methyl[5-(morpholin-4-ylsulfonyl)-3,4′-bipyridin-2′-yl]carbamate]",> 99
13,"CC(=O)Nc1cc(-c2cnc(Cl)c(NS(=O)(=O)c3ccc(C(F)(F)F)cc3Cl)c2C)ccn1 [Compound I-333, N-(6-chloro-5-(2-chloro-4-(trifluoromethyl)phenylsulfonamido)-4-methyl-[3,4′-bipyridin]-2′-yl)acetamide]",> 99
14,"CC(=O)Nc1cc(-c2cnc3c(c2)S(=O)(=O)N[C@@H](c2ccccc2)CO3)ccn1 [Compound I-334, (S)-N-[4-(1,1-dioxido-3-phenyl-3,4-dihydro-2H-pyrido[2,3-b][1,4,5]oxathiazepin-8-yl)pyridin-2-yl]acetamide]",82
15,"CC(=O)Nc1cc(-c2cnc(Cl)c(NS(=O)(=O)c3ccc(C4CC4)cc3F)c2C)ccn1 [Compound I-335, N-(6-chloro-5-{[(4-cyclopropyl-2-fluorophenyl)sulfonyl]amino}-4-methyl-3,4′-bipyridin-2′-yl)acetamide]",92
16,"Cc1nccc(Nc2cc(-c3cncc(C(C)Oc4ccccc4Cl)c3)ccn2)n1 (centres unmarked) [Compound I-336, 5-[1-(2-chlorophenoxy)ethyl]-N-(2-methylpyrimidin-4-yl)-3,4′-bipyridin-2′-amine]",96
17,"CC(=O)Nc1cc(-c2cnc(N)c(N3CCCC3=O)c2)ccn1 [Compound I-337, N-[6-amino-5-(2-oxopyrrolidin-1-yl)-3,4′-bipyridin-2′-yl]acetamide]",52
18,"CC(=O)Nc1cc(-c2cncc(S(=O)(=O)NC3CC3)c2)ccn1 [Compound I-338, N-[5-(cyclopropylsulfamoyl)-3,4′-bipyridin-2′-yl]acetamide]",> 99
19,"CC(=O)Nc1cc(-c2cnc(C)c(NS(=O)(=O)c3cccc(C)c3F)c2)ccn1 [Compound I-339, N-(5-{[(2-fluoro-3-methylphenyl)sulfonyl]amino}-6-methyl-3,4′-bipyridin-2′-yl)acetamide]",98

# Next, values leading:
row,inhibition at 1.11 µM [%],SMILES
1,91,"CC(=O)Nc1cc(-c2cc(NS(=O)(=O)c3ccc(F)cc3F)c3ncnn3c2)ccn1 [Compound I-340, N-[4-(8-{[(2,4-difluorophenyl)sulfonyl]amino}[1,2,4]triazolo[1,5-a]pyridin-6-yl)pyridin-2-yl]acetamide]"
2,> 99,"CC(=O)Nc1cc(-c2cnc(C)c(N3CCCN(C)S3(=O)=O)c2)ccn1 [Compound I-343, N[6-methyl-5-(6-methyl-1,1-dioxido-1,2,6-thiadiazinan-2-yl)-3,4′-bipyridin-2′-yl]acetamide]"
3,> 99,"COc1ncc(-c2ccnc(NC(C)=O)c2)cc1S(=O)(=O)Nc1ccc(Cl)cc1Cl [Compound I-344, N-{5-[(2,4-dichlorophenyl)sulfamoyl]-6-methoxy-3,4′-bipyridin-2′-yl}acetamide]"
4,95,"Cc1nccc(Nc2cc(-c3cnc(C)c(C(=O)N(C)c4ccc(F)cc4F)c3)ccn2)n1 [Compound I-346, N-(2,4-difluorophenyl)-N,6-dimethyl-2′-[(2-methylpyrimidin-4-yl)amino]-3,4′-bipyridine-5-carboxamide]"
5,22,"COc1ncc(-c2ccnc(NC(C)=O)c2)cc1NC(=O)c1ccc(F)cc1F [Compound I-347, N-(2′-acetamido-6-methoxy-3,4′-bipyridin-5-yl)-2,4-difluorobenzamide]"
6,> 99,"CC(=O)Nc1cc(-c2cncc(NS(=O)(=O)N(C)C)c2)ccn1 [Compound I-348, N-{5-[(dimethylsulfamoyl)amino]-3,4′-bipyridin-2′-yl}acetamide]"
7,94,"Cc1nccc(Nc2cc(-c3cncc(C(C)OCc4ccccn4)c3)ccn2)n1 (centres unmarked) [Compound I-349, N-(2-methylpyrimidin-4-yl)-5-[1-(pyridin-2-ylmethoxy)ethyl]-3,4′-bipyridin-2′-amine]"
8,> 99,"CCCCN(CCCC)S(=O)(=O)Nc1cc(-c2ccnc(NC(C)=O)c2)cnc1C [Compound I-350, N-{5-[(dibutylsulfamoyl)amino]-6-methyl-3,4′-bipyridin-2′-yl}acetamide]"
9,92,"CC(=O)Nc1cc(-c2cnc(C)c(N3CCNS3(=O)=O)c2)ccn1 [Compound I-352, N-[5-(1,1-dioxido-1,2,5-thiadiazolidin-2-yl)-6-methyl-3,4′-bipyridin-2′-yl]acetamide]"
10,> 99,"CC(=O)Nc1cc(-c2cnc(C)c(S(=O)(=O)Nc3ccc(F)cc3F)c2)ccn1 [Compound I-353, N-(5-(N-(2,4-difluorophenyl)sulfamoyl)-6-methyl-[3,4′-bipyridin]-2′-yl)acetamide]"
11,98,"CC(=O)Nc1cc(-c2cnc(Cl)c(NS(=O)(=O)c3c(Cl)cccc3Cl)c2C)ccn1 [Compound I-354, N-(6-chloro-5-{[(2,6-dichlorophenyl)sulfonyl]amino}-4-methyl-3,4′-bipyridin-2′-yl)acetamide]"
12,91,"Cc1c(-c2ccnc(Nc3ccnc(C4CC4)n3)c2)cnc(Cl)c1N [Compound I-355, 6-chloro-N~2~′-(2-cyclopropylpyrimidin-4-yl)-4-methyl-3,4′-bipyridine-2′,5-diamine]"
13,> 99,"CC(=O)Nc1cc(-c2cnc(C)c(NS(=O)(=O)c3ccc(C#N)cc3F)c2)ccn1 [Compound I-356, N-(5-{[(4-cyano-2-fluorophenyl)sulfonyl]amino}-6-methyl-3,4′-bipyridin-2′-yl)acetamide]"
14,> 99,"CC(=O)Nc1cc(-c2cnc(C)c(N3CC(NCc4ccccc4)CS3(=O)=O)c2)ccn1 (centres unmarked) [Compound I-357, N-{5-[4-(benzylamino)-1,1-dioxidoisothiazolidin-2-yl]-6-methyl-3,4′-bipyridin-2′-yl}acetamide]"
15,> 99,"COc1ncc(-c2ccnc(NC(C)=O)c2)cc1S(=O)(=O)Nc1cc(F)ccc1F [Compound I-358, N-{5-[(2,5-difluorophenyl)sulfamoyl]-6-methoxy-3,4′-bipyridin-2′-yl}acetamide]"
16,> 99,"CC(=O)Nc1cc(-c2cnc(C)c(OS(=O)(=O)N(C)C)c2)ccn1 [Compound I-359, 2′-acetamido-6-methyl-3,4′-bipyridin-5-yl dimethylsulfamate]"
17,90,"Cc1c(-c2ccnc(Nc3ccnc(C4CC4)n3)c2)cnc(Cl)c1C(=O)N1CCC1 [Compound I-361, azetidin-1-yl(6-chloro-2′-((2-cyclopropylpyrimidin-4-yl)amino)-4-methyl-[3,4′-bipyridin]-5-yl)methanone]"

# Same assay, conditions: read-out: Percent Inhibition
row,SMILES,inhibition at 1.11 µM [%]
1,"CC(=O)Nc1cc(-c2cnc(C)c(NS(=O)(=O)N3CCCCCC3)c2)ccn1 [Compound I-341, N-{5-[(azepan-1-ylsulfonyl)amino]-6-methyl-3,4′-bipyridin-2′-yl}acetamide]",> 99

# Source: patent publication US9802960B2 (MILLENNIUM PHARMACEUTICALS, INC., priority 2014, dated 2017)
